# Experiments:
# [1] = cited from earlier work
# COLO 205 tumor tissues = experiment: DNA fragmentation analysis / TdT nick end labeling in tumor tissues; type: in vivo, nude mouse; settings: tumor from TB-treated mouse, 6 weeks
# [2] = cited from earlier work; remark: listed apart in the source
# COLO 205 cells = experiment: Flow cytometry (FACS) cell cycle analysis; type: cell-based, human
# Protocol: When they were returned to culture media containing 10% FCS and 0.05% DMSO (control) or 90 μM TB in 0.05% DMSO (which started them all on a new cell cycle) and, at various times thereafter, they were harvested for flow cytometry analysis. […] COLO 205 (A) and HT29 (B) cells were synchronized with 0.04% FCS for 24 h as described in Examples. After synchronization, the cells were then released into complete medium (10% FCS) containing 0.05% DMSO (left panel), or 90 μM TB in 0.05% DMSO (right panel). Percentage of cells in G0/G1, S, and G2/M phases of the cell cycle were determined using established CellFIT DNA analysis software. […] In Hep3B (D) and HL60 (E), TB caused the occurrence of apoptosis in a dose-dependent manner. […] FACS analysis of DNA content after 15 h release from quiescence by incubation in culture media supplemented with 10% FCS and various concentrations of TB in 0.05% DMSO. Percentage of cells in G0/G1, S, and G2/M phases of the cell cycle were determined using established CellFIT DNA analysis software.
# The invention further tested whether TB can induce cell cycle arrest at a lower concentration with longer exposure. […] The COLO 205 cells were exposed to culture media supplemented with 10% FCS and various concentrations (1 and 5 μM) of TB in 0.05% DMSO for the indicated times. Media with and without TB were changed daily until flowcytometry analysis performed. Percentage of cells in G0/G1, S, and G2/M phases of the cell cycle were determined using established CellFIT DNA analysis software. Three samples were analyzed in each group, and values represent the mean±S.E.
# The COLO 205 and HT 29 cells were synchronized as previously described. (Chen R J, et. al., Toxicology & Applied Pharmacology 2000;169(2):132-41.). After the cells had grown to 70-80% confluence, they were rendered quiescent by incubation for 24 h in RPMI 1640 containing 0.04% FCS, and challenged with 10% FCS. Then, after release using trypsin-EDTA, they were harvested at various times, washed twice with PBS/0.1% dextrose, and fixed in 70% ethanol at 4° C. Nuclear DNA was stained with a reagent containing propimdiamdiodine (50 DNase-free RNase (2 U/ml) and measured using a fluorescence-activated cell sorter (FACS). The population of nuclei in each phase of the cell cycle was determined using established CellFIT DNA analysis software (Becton Dickenson, San Jose, Calif.).
# [3] = tested on: COLO 205 tumor xenografts; experiment: Treatment of COLO 205-derived xenografts in vivo; set-up: species or system nude mouse
# Protocol: Genomic DNAs extracted from TB-treated COLO 205 were examined by gel electrophoresis. […] DNA fragmentation was examined at 24 h after drug treatment. In the lanes 2 and 8, cells received mock treatment as controls. […] Comparisons were subjected to ANOVA followed by Fisher's least significant difference test. […] Since, retardation of the cell cycle and/or activation of the cellular apoptotic response are two major mechanisms preventing tumor growth, we examined the TB effect on the cell cycle and apoptosis occurrence of the solid tumor derived from the implanted COLO 205. The COLO-205 cells (5×10^6) in 0.1 ml RPMI 1640 were injected subcutaneously between the scapulae of each nude mouse (purchased from National Science Council animal center, Taipei). […]
# [4] = tested on: p53 and p21/Cip1 protein in COLO 205 tumor; experiment: Western blot of COLO 205 tumor; type: in vivo, nude mouse; settings: tumor isolated at 6 weeks after TB treatment
# Protocol: Western blot analyses show the levels of p53 and p21/Cip1 protein in COLO 205 tumor (C). COLO 205 tumors were isolated for protein extraction at 6 weeks after DMSO or TB treatment. Membranes were also probed with anti-GAPDH antibody to correct for differences in protein loading. […] Western blot analysis was performed as previously described (Chen R J, et. al., Toxicology & Applied Pharmacology 2000;169(2):132-41; Lee W S, et. al., Circulation Research 1998;82(8):845-51.). Immunodetection was carried by probing with proper dilutions of specific antibodies at room temperature for 2 h. Anti-p21/Cip1, anti-p27/Kip1, anti-p53, anti-GAPDH monoclonal antibodies (Santa Cruz, Inc. CA); anti-cyclin B1, D1, and D3, anti-cdk2 and cdk4, and PCNA monclonal antibodies (Transduction Laboratories, Lexington, Ky.) were used at a concentration of 1:1,000 dilution. Anti-cyclin A and E polyclonal antibodies (Transduction, San Diego, Calif.) were used at a concentration of 1:250 dilution. […] In each experiment, membranes were also probed with anti-GAPDH antibody to correct for differences in protein loading.
# [5] = tested on: p53, p21/Cip1 and p27/Kip1 protein in COLO 205 tumor tissues; experiment: Immunocytochemical staining of COLO 205 tumor tissues; type: in vivo, nude mouse; settings: TB-treated vs DMSO-treated nude mice
# Hep G2 cells = experiment: Flow cytometry (FACS) cell cycle analysis; type: cell-based, human; settings: various concentrations of TB, 15 h after release from quiescence; dose-dependent
# [6] = tested on: p53 binding to p21/Cip1 promoter DNA, nuclear extracts of COLO 205 cells; experiment: Electrophoretic mobility shift assay (EMSA); type: cell-based, human; settings: 60 μM TB
# Protocol: Antisense or sense p53 was added to COLO 205 at a final concentration of 20 μM at 16 h before the cell was challenged with 10% FCS and 60 μM TB treatment for additional 15 h. […] The radio labeled DNA (4 ng, 100,000 cpm) was incubated with nuclear extract in 15 μl of binding buffer (10 mM Tris-HCl, pH 8.0, 1 mM EDTA, 10% glycerol, 200 mM NaCl, and 1 μg probe DNA) on ice for 5 min. The samples were electrophoresed in a 5% polyacrylamide gel, dried on Whatman 3M paper, and then exposed to Fuji x-ray films at -70° C.
# Hep3B = experiment: Determination of cell growth curve (cell counting); type: cell-based, human; settings: 5 days
# Protocol: (§1) The effect of TB on the growth of various human cancer cells […]. In FIG. 1, (A) COLO205, (B) HT29, (C) HepG2, (D) Hep3B, (E) HL60, and (F) normal human fibroblast cells were treated with various concentrations of TB (30 to 120 μM). Media with or without TB were renewed daily until cell counting. Three samples were analyzed in each group. Values represent mean±S.E. The cells were cultured for 5 days with or without TB (30-120 μM), and then the cells were harvested and counted. […] Human colon cancer, hepatoma, leukemia, and human normal fibroblast cells at a density of 1×10^4 were plated in 35-mm Petri dishes. TB was added at the indicated doses in 0.05% dimethyl-sulfoxide (DMSO). For control specimens, the same volume of the 0.05% DMSO without TB was added. Media with and without TB were changed daily until cell counting
# HL60 = experiment: Determination of cell growth curve (cell counting); type: cell-based, human; settings: 5 days
# Protocol: as §1
# HT29 = experiment: Determination of cell growth curve (cell counting); type: cell-based, human; settings: 5 days
# Protocol: as §1
# HepG2 = experiment: Determination of cell growth curve (cell counting); type: cell-based, human; settings: 5 days
# Protocol: as §1
# [7] = daily oral 250 mg TB for 4 weeks, human study
# [8] = TB 30-120 μM, media renewed daily, dose-dependent
# [9] = TB concentration increased to 60 μM
structure (smiles),measurement,setting,value
"CN(C/C=C/C#CC(C)(C)C)Cc1cccc2ccccc12 [TB, 1-Naphthalenemethanamine, N-(6,6-dimethyl-2-hepten-4-ynyl)-N-methyl-, (E)-]",tissue accumulation,"[1]; adipose tissues, keratin-rich tissues (dermis, epidermis, nail) and other organ tissues",extensively accumulates
same,tissue concentrations relative to plasma,[1]; as early as 1 day after stop of medication,exceeded that of plasma
same,"apoptosis in COLO 205 tumor (nick end labeling, DNA fragmentation)",COLO 205 tumor tissues,Induction of apoptosis
same,fraction of TB absorbed,[2]; after an oral dose (250 mg),approximately 70%
same,maximum plasma concentrations,[2]; after an oral dose (250 mg),0.5 to 1.5 µg/mL
same,time to reach maximum plasma concentrations,[2]; after an oral dose (250 mg),≤ 2 h
same,plasma level of TB,[2]; [7],1700 ± 770 ng/mL
same,plasma level of TB (molar),[2]; [7],5.83 µM
same,increase of G0/G1 population,"COLO 205 cells; 60 μM TB alone, 15 h",about 2.3 fold
same,accumulation of cells at the G0/G1 phase,COLO 205 cells; 90 μM TB after release from quiescence,> 90%
same,G0/G1 cell cycle arrest at low concentration with longer exposure,COLO 205 cells; TB 1 μM for 3 days,arrested the COLO 205 cells at the G0/G1 phase
same,G0/G1 cell cycle arrest at low concentration with longer exposure,"COLO 205 cells; TB 1 μM for 4 days, media changed daily",induce significant G0/G1 cell cycle arrest
same,"G0/G1 arrest, dose effect","COLO 205 cells; various concentrations of TB, 15 h after release from quiescence, dose-dependent",induced G0/G1 arrest
same,cytotoxicity for the vital organs,[3]; 50 mg/Kg body weight,not cytotoxic for the vital organs
same,tumor volume vs. vehicle (DMSO plus peanut oil),"[3]; TB 50 mg/kg, ND 5 mg/kg, intraperitoneal, 3 times per week for 6 weeks",reduction in tumor volume
same,tumor size of the COLO 205 tumor mass,[3]; intraperitoneal TB 50 mg/kg,substantial decline in tumor size
same,contents of p53 and p21/Cip1 in tumor,[4],increased
same,"p53, p21/Cip1 and p27/Kip1 immunoreactivities in tumor tissues",[5],strongly induced
same,"G0/G1 arrest, dose effect",Hep G2 cells,induced G0/G1 arrest
same,binding between p53 protein and p53 consensus binding site in p21/Cip1 promoter DNA probe,[6],increased the binding
same,cell number,Hep3B; [8],decreased cell number
same,cell growth at TB 60 μM,Hep3B; [9],cell growth arrest or cell death
same,cell number,HL60; [8],decreased cell number
same,cell growth at TB 60 μM,HL60; [9],cell growth arrest or cell death
same,cell number,HT29; [8],decreased cell number
same,cell growth at TB 60 μM,HT29; [9],cell growth arrest or cell death
same,cell number,HepG2; [8],decreased cell number
same,cell growth at TB 60 μM,HepG2; [9],cell growth arrest or cell death
